28 molecules from patent US10173991B2, “Sulfone amide linked benzothiazole inhibitors of endothelial lipase” (BRISTOL-MYERS SQUIBB COMPANY, priority 2014, dated 2019) can be followed below.

In this test the target is Endothelial lipase (EL) (Homo sapiens (Human), UniProt Q9Y5X9). Kind of test: Endothelial lipase (EL) enzymatic assay with fluorescent substrate A10070 in DMPG vesicles. It is filed as biochemical. An outline of the steps:
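Compounds were preincubated with enzyme for 30 min at 37° C before FRET-substrate vesicles (A10070 in DMPG, 0.11 mole fraction) were added. Reaction rates were obtained from the 300–900 sec slope of fluorescence at 490/530 nm.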

Chain of Endothelial lipase (EL) (Q9Y5X9 21-500): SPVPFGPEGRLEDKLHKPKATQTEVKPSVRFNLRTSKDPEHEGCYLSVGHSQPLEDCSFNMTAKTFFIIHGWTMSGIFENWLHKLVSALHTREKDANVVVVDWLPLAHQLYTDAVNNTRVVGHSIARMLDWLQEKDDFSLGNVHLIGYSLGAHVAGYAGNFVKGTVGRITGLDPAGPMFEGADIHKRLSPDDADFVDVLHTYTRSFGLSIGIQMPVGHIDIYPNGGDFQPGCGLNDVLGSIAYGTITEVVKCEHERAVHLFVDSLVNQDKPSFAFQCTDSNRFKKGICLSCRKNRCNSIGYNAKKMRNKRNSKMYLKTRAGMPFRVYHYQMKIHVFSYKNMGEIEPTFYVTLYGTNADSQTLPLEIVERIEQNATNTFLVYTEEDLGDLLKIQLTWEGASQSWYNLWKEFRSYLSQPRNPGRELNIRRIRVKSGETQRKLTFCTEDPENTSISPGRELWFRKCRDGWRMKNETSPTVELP

As usually defined, the IC50 is the concentration that inhibits the measured activity by half. Lower therefore signals greater potency in that assay. Take `COCCS(=O)(=O)C(C(=O)NCC(=O)NC1CC1)c1nc2cc(-c3ccc(NC(C)=O)cc3)ccc2s1` (stereo not shown) [Example 106, N-[(cyclopropyl-carbamoyl)methyl]-2-[5-(4-acetamidophenyl)-1,3-benzothiazol-2-yl]-2-(2-methoxyethane-sulfonyl)acetamide]: half-maximal inhibition (IC50) required 30 nM.
In turn, `COCCS(=O)(=O)C(C(=O)NCC(=O)NC1CC1)c1nc2cc(Cl)c(-c3ccnn3C)cc2s1` (stereo not shown) [Example 107] displayed an IC50 of 34 nM.
Under `COCCS(=O)(=O)C(C(=O)NCC(=O)NC1CC1)c1nc2cc(Cl)c(-c3ccn(C)c(=O)c3)cc2s1` (stereo not shown) [Example 108, 2-[5-chloro-6-(1-methyl-2-oxo-1,2-dihydropyridin-4-yl)-1,3-benzothiazol-2-yl]-N-[(cyclopropyl-carbamoyl)methyl]-2-(2-methoxyethane-sulfonyl)acetamide] stands 51 nM.
`CC(C)(O)Cn1cc(-c2ccc3nc(C(C(=O)NCC(=O)NC4CC4)S(C)(=O)=O)sc3c2)cn1` (stereo not shown) [Example 109, N-[(cyclopropyl-carbamoyl)methyl]-2-{6-[1-(2-hydroxy-2-methylpropyl)-1H-pyrazol-4-yl]-1,3-benzothiazol-2-yl}-2-methanesulfonyl-acetamide]: the IC50 turned out to be 14 nM.
Then `COCCS(=O)(=O)C(C(=O)NCC(=O)NC1CC1)c1nc2ccc(-c3cnn(CC(C)(C)O)c3)cc2s1` (stereo not shown) [Example 110, N-[(cyclopropyl-carbamoyl)methyl]-2-{6-[1-(2-hydroxy-2-methylpropyl)-1H-pyrazol-4-yl]-1,3-enzothiazol-2-yl}-2-(2-methoxyethane-sulfonyl) acetamide], with 31 nM.
Under `CC(=O)Nc1cccc(-c2ccc3nc(C(C(=O)NCC(=O)NC4CC4)S(C)(=O)=O)sc3c2)c1` (stereo not shown) [Example 111, N-[(cyclopropyl-carbamoyl)methyl]-2-[6-(3-acetamidophenyl)-1,3-benzothiazol-2-yl]-2-methanesulfonyl-acetamide] stands 23 nM.
As to `COCCS(=O)(=O)C(C(=O)NCC(=O)NC1CC1)c1nc2cc(Cl)c(-c3cncnc3)cc2s1` (stereo not shown) [Example 112, 2-[5-chloro-6-(pyrimidin-5-yl)-1,3-benzothiazol-2-yl]-N-[(cyclopropyl-carbamoyl)methyl]-2-(2-methoxyethane-sulfonyl)acetamide], it took 97 nM to reach half-maximal inhibition (IC50).
In turn, `CC(=O)Nc1ccc(-c2cc3nc(C(C(=O)NCC(=O)NC4CC4)S(C)(=O)=O)sc3cc2F)cc1` (stereo not shown) [Example 113, N-[(cyclopropyl-carbamoyl)methyl]-2-[5-(4-acetamidophenyl)-6-fluoro-1,3-benzothiazol-2-yl]-2-methanesulfonyl-acetamide] displayed an IC50 of 9 nM.
The molecule `COC(=O)Nc1ccc(-c2cc3nc(C(C(=O)NCC(=O)NC4CC4)S(C)(=O)=O)sc3cc2F)cc1` (stereo not shown) [Example 114, methyl N-{4-[2-({[(cyclopropyl-carbamoyl)methyl]caramoyl} (methanesulfonyl)methyl)-6-fluoro-1,3-benzothiazol-5-yl]phenyl} carbamate] registered an IC50 of 4 nM.
`CC(=O)Nc1cccc(-c2cc3nc(C(C(=O)NCC(=O)NC4CC4)S(C)(=O)=O)sc3cc2F)c1` (stereo not shown) [Example 115, N-[(cyclopropyl-carbamoyl)methyl]-2-[5-(3-acetamidophenyl)-6-fluoro-1,3-benzothiazol-2-yl]-2-methanesulfonyl-acetamide] came in with a 50% inhibitory concentration (IC50) of 12 nM.
As for `CC(=O)Nc1cccc(-c2cc3sc(C(C(=O)NCC(=O)NC4CC4)S(C)(=O)=O)nc3cc2F)c1` (stereo not shown) [Example 116, N-[(cyclopropyl-carbamoyl)methyl]-2-[6-(3-acetamidophenyl)-5-fluoro-1,3-benzothiazol-2-yl]-2-methanesulfonyl-acetamide], the IC50 was found to be 17 nM.
As to `COC(=O)Nc1cccc(-c2cc3sc(C(C(=O)NCC(=O)NC4CC4)S(C)(=O)=O)nc3cc2F)c1` (stereo not shown) [Example 117, methyl N-{3-[2-({[(cyclopropyl-carbamoyl)methyl]carbamoyl} (methanesulfonyl)methyl)-5-fluoro-1,3-benzothiazol-6-yl]phenyl} carbamate], the IC50 came to 4 nM.
`COC(=O)Nc1ccc(-c2cc3sc(C(C(=O)NCC(=O)NC4CC4)S(C)(=O)=O)nc3cc2F)cc1F` (stereo not shown) [Example 118, methyl N-{4-[2-({[(cyclopropyl-carbamoyl)methyl]carbamoyl} (methanesulfonyl)methyl)-5-fluoro-1,3-benzothiazol-6-yl]-2-fluorophenyl} carbamate] had an IC50 of 11 nM.
Then `COC(=O)Nc1ccc(-c2cc3sc(C(C(=O)NCC(=O)NC4CC4)S(C)(=O)=O)nc3cc2F)cc1` (stereo not shown) [Example 120, methyl N-{4-[2-({[(cyclopropyl-carbamoyl)methyl]carbamoyl} (methanesulfonyl)methyl)-5-fluoro-1,3-benzothiazol-6-yl]phenyl} carbamate], with 4 nM; and `CS(=O)(=O)C(C(=O)NCC(=O)NC1CC1)c1nc2c(Cl)cc(-c3ccc(F)nc3)cc2s1` (stereo not shown) [Example 121, 2-[4-chloro-6-(6-fluoropyridin-3-yl)-1,3-benzothiazol-2-yl]-N-[(cyclopropyl-carbamoyl)methyl]-2-methanesulfonyl-acetamide], with 14 nM.
As to `COC(=O)Nc1ccc(-c2cc3nc(C(C(=O)NCC(=O)NC4CC4)S(C)(=O)=O)sc3cc2F)cc1F` (stereo not shown) [Example 122, methyl N-{4-[2-({[(cyclopropyl-carbamoyl)methyl]carbamoyl} (methanesulfonyl)methyl)-6-fluoro-1,3-benzothiazol-5-yl]-2-fluorophenyl} carbamate], the 50% inhibitory concentration (IC50) came to 7 nM. Against the preceding molecule, the IC50 is about 2-fold lower.
As for `COC(=O)Nc1cccc(-c2cc3nc(C(C(=O)NCC(=O)NC4CC4)S(C)(=O)=O)sc3cc2F)c1` (stereo not shown) [Example 123, methyl N-{3-[2-({[(cyclopropyl-carbamoyl)methyl]carbamoyl} (methanesulfonyl)methyl)-6-fluoro-1,3-benzothiazol-5-yl]phenyl} carbamate], the IC50 was 5 nM.
Molecule `COC(=O)Nc1ccc(-c2cc(Cl)c3nc(C(C(=O)NCC(=O)NC4CC4)S(C)(=O)=O)sc3c2)cc1F` (stereo not shown) [Example 124, methyl N-{4-[4-chloro-2-({[(cyclopropyl-carbamoyl)methyl]carbamoyl} (methanesulfonyl)methyl)-1,3-benzothiazol-6-yl]-2-fluorophenyl} carbamate] registered an IC50 of 2 nM.
The molecule `COC(=O)Nc1ccc(-c2cc(Cl)c3nc(C(C(=O)NCC(=O)NC4CC4)S(C)(=O)=O)sc3c2)cc1` (stereo not shown) [Example 125, methyl N-{4-[4-chloro-2-({[(cyclopropyl-carbamoyl)methyl]carbamoyl} (methanesulfonyl)methyl)-1,3-benzothiazol-6-yl]phenyl} carbamate] had an IC50 of 2 nM.
Under `Cc1ncc(-c2ccc3sc(C(C(=O)NCC(=O)NC4CC4)S(C)(=O)=O)nc3c2F)cn1` (stereo not shown) [Example 126, N-[(cyclopropyl-carbamoyl)methyl]-2-[4-fluoro-5-(2-methylpyrimidin-5-yl)-1,3-benzothiazol-2-yl]-2-methanesulfonyl-acetamide] stands 137 nM; under `CS(=O)(=O)C(C(=O)NCC(=O)NC1CC1)c1nc2c(F)c(-c3ccc(NC(=O)OCc4ccccc4)cc3)ccc2s1` (stereo not shown) [Example 127, benzyl N-{4-[2-({[(cyclopropyl-carbamoyl)methyl]carbamoyl} (methanesulfonyl)methyl)-4-fluoro-1,3-benzothiazol-5-yl]phenyl} carbamate], 3 nM.
`COCCS(=O)(=O)C(C(=O)NCC(=O)NC1CC1)c1nc2cc(-c3ccc(-c4nnn[nH]4)cc3)c(F)cc2s1` (stereo not shown) [Example 128, N-[(cyclopropyl-carbamoyl)methyl]-2-{6-fluoro-5-[4-(1H-1,2,3,4-tetrazol-5-yl)phenyl]-1,3-benzothiazol-2-yl}-2-(2-methoxyethane-sulfonyl) acetamide] returned a concentration for half-maximal inhibition (IC50) of 97 nM.
In turn, `COCCS(=O)(=O)C(C(=O)NCC(=O)NC1CC1)c1nc2cc(-c3cccc(-c4cc[nH]n4)c3)c(F)cc2s1` (stereo not shown) [Example 129, N-[(cyclopropyl-carbamoyl)methyl]-2-{6-fluoro-5-[3-(1H-pyrazol-3-yl)phenyl]-1,3-benzothiazol-2-yl}-2-(2-methoxyethane-sulfonyl) acetamide] displayed a 50% inhibitory concentration (IC50) of 12 nM. Compared with the last molecule, the IC50 is about 8.1-fold lower.
As to `COCCS(=O)(=O)C(C(=O)NCC(=O)NC1CC1)c1nc2cc(-c3ccc(-c4ccn[nH]4)cc3)c(F)cc2s1` (stereo not shown) [Example 130, N-[(cyclopropyl-carbamoyl)methyl]-2-{6-fluoro-5-[4-(1H-pyrazol-5-yl)phenyl]-1,3-benzothiazol-2-yl}-2-(2-methoxyethane-sulfonyl) acetamide], half-maximal inhibition (IC50) was put at 18 nM.
For the molecule `COCCS(=O)(=O)C(C(=O)NCC(=O)NC1CC1)c1nc2cc(-c3cnc(-n4cccn4)nc3)c(F)cc2s1` (stereo not shown) [Example 131, N-[(cyclopropyl-carbamoyl)methyl]-2-{6-fluoro-5-[2-(1H-pyrazol-1-yl)pyrimidin-5-yl]-1,3-benzothiazol-2-yl}-2-(2-methoxyethane-sulfonyl) acetamide], the midpoint of inhibition, the IC50, lay at 131 nM.
In turn, `COCCS(=O)(=O)C(C(=O)NCC(=O)NC1CC1)c1nc2cc(-c3ccc(-n4cnnn4)cc3)c(F)cc2s1` (stereo not shown) [Example 132, N-[(cyclopropyl-carbamoyl)methyl]-2-{6-fluoro-5-[4-(1H-1,2,3,4-tetrazol-1-yl)phenyl]-1,3-benzothiazol-2-yl}-2-(2-methoxyethane-sulfonyl) acetamide] showed an IC50 of 52 nM.
For the molecule `COCCS(=O)(=O)C(C(=O)NCC(=O)NC1CC1)c1nc2cc(-c3cccc(-c4nnn[nH]4)c3)c(F)cc2s1` (stereo not shown) [Example 133, N-[(cyclopropyl-carbamoyl)methyl]-2-{6-fluoro-5-[3-(1H-1,2,3,4-tetrazol-5-yl)phenyl]-1,3-benzothiazol-2-yl}-2-(2-methoxyethane-sulfonyl) acetamide], the midpoint of inhibition, the IC50, lay at 145 nM.
Molecule `COCCS(=O)(=O)C(C(=O)NCC(=O)NC1CC1)c1nc2cc(-c3cccc(C(=O)OC(C)(C)C)c3)ccc2s1` (stereo not shown) [Example 134, tert-butyl 3-[2-({[(cyclopropyl-carbamoyl)methyl]carbamoyl}(2-methoxyethane-sulfonyl)methyl)-1,3-benzothiazol-5-yl]benzoate] had a 50% inhibitory concentration (IC50) of 2 nM.
